We go through three molecules from ChEMBL document CHEMBL2176875, “Ago-allosteric modulators of human glucagon-like peptide 2 receptor” (Bioorg Med Chem Lett, 2012).

The target of assay [1] is T1, Glucagon-like peptide 2 receptor (Homo sapiens) (UniProt O95838).
T1 sequence (whole entry): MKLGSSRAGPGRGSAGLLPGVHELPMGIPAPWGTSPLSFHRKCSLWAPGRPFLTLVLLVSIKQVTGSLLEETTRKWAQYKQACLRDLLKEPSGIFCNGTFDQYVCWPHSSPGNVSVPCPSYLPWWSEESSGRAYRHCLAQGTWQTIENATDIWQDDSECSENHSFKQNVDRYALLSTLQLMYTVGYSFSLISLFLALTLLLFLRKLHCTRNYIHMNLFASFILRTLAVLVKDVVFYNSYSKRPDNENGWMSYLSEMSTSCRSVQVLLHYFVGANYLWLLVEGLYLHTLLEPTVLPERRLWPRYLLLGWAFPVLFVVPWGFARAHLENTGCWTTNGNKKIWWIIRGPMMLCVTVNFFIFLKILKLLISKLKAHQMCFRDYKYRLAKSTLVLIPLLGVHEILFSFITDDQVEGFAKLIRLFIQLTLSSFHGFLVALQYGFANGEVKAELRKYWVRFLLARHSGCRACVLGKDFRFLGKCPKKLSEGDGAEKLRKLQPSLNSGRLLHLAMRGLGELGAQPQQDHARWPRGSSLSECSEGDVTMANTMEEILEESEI
Kind of assay: Positive ago-allosteric modulation of GLP2R overexpressed in human SE302 cells assessed as placental alkaline phosphatase activation measured on day 3 by Alamar Blue assay relative to GLP2. In kind it is cell-based.

The target of assay [2] is T1, Glucagon-like peptide 2 receptor (Homo sapiens). The experiment in a line: Displacement of [125I]-Bolton Hunter labeled GLP2 from GLP2R overexpressed in human SE302 cell membranes at 10 uM after 2 hrs by gamma counter.
The target in assay [3] is T2, Glucagon-like peptide 2 receptor (Homo sapiens, UniProt O95838).
T2 sequence (O95838 whole entry): T1 sequence (whole entry)
The experiment in a line: (§1) Positive ago-allosteric modulation of GLP2R overexpressed in human SE302 cells assessed as placental alkaline phosphatase activation measured on day 3 by Alamar Blue assay. It counts as cell-based.

Assay [4] concerns the target T1, Glucagon-like peptide 2 receptor (Homo sapiens). The experiment in a line: Positive ago-allosteric modulation of GLP2R overexpressed in human SE302 cells assessed as increase in (Z)-methyl 2-(2-(2,5-dichlorothiophen-3-yl)-2-(hydroxyimino)ethylthio)benzoate-induced placental alkaline phosphatase activation measured on day 3 by Alamar Blue assay. It counts as cell-based.

For assay [5] the target is unchanged. The experiment in a line: Displacement of [125I]-Bolton Hunter labeled GLP2 from GLP2R overexpressed in human SE302 cell membranes at 1 uM after 2 hrs by gamma counter.
Assay [6] has the same target. The experiment in a line: Positive ago-allosteric modulation of GLP2R overexpressed in human SE302 cells assessed as reduction of GLP2-induced cAMP level at 3 to 10 uM after 30 mins. In kind it is functional, cell-based.
For assay [7] the target is unchanged. Kind of assay: Displacement of [125I]-Bolton Hunter labeled GLP2 from GLP-2R overexpressed in human SE302 cell membranes up to 100 uM after 2 hrs by gamma counter.
Assay [8] has the same target. Kind of assay: Positive ago-allosteric modulation of GLP2R overexpressed in human SE302 cells assessed as placental alkaline phosphatase activation at 50 uM measured on day 3 by Alamar Blue assay relative to 100 pM GLP2. In kind it is cell-based.
For assay [9] the target is unchanged. The experiment in a line: Positive ago-allosteric modulation of GLP2R overexpressed in human SE302 cells assessed as decrease in GLP2 (11 to 33) EC50 at 1 uM measured on day 3 by Alamar Blue assay relative to control. It counts as cell-based.
The target is the same in assay [10]. Kind of assay: Positive ago-allosteric modulation of GLP2R overexpressed in human SE302 cells assessed as placental alkaline phosphatase activation at 25 uM measured on day 3 by Alamar Blue assay relative to 10 pM GLP2. In kind it is cell-based.
For assay [11] the target is unchanged. The experiment in a line: Positive ago-allosteric modulation of GLP2R overexpressed in human SE302 cells assessed as increase in GLP2 (3 to 33)-induced placental alkaline phosphatase activation at 10 uM measured on day 3 by Alamar Blue assay relative to control. It counts as cell-based.
Assay [12] has as its target Glucagon-like peptide 1 receptor (Homo sapiens) (UniProt P43220). The experiment in a line: Positive ago-allosteric modulation of GLP1R overexpressed in human SE302 cells assessed as increase in intracellular cAMP level at 10 to 100 uM after 30 mins. In kind it is functional, cell-based.
In assay [13] the target is T1, Glucagon-like peptide 2 receptor (Homo sapiens). Kind of assay: Positive ago-allosteric modulation of GLP2R overexpressed in human SE302 cells assessed as increase in intracellular cAMP level at 10 uM after 30 mins in presence of GLP2. In kind it is functional, cell-based.
For assay [14] the target is unchanged. The experiment in a line: Positive ago-allosteric modulation of GLP2R overexpressed in human SE302 cells assessed as placental alkaline phosphatase activation at 25 uM measured on day 3 by Alamar Blue assay relative to 100 pM GLP2. It counts as cell-based.
The target is the same in assay [15]. The experiment in a line: Positive ago-allosteric modulation of GLP2R overexpressed in human SE302 cells assessed as decrease in GLP2 (3 to 33) EC50 at 10 uM measured on day 3 by Alamar Blue assay relative to control. In kind it is cell-based.
The target is the same in assay [16]. The experiment in a line: Positive ago-allosteric modulation of GLP2R overexpressed in human SE302 cells assessed as GLP2 (3 to 33)-induced placental alkaline phosphatase activation at 10 uM measured on day 3 by Alamar Blue assay relative to GLP2. In kind it is cell-based.
Assay [17] shares this target. Kind of assay: Positive ago-allosteric modulation of GLP2R overexpressed in human SE302 cells assessed as leftward shift in GLP2-induced placental alkaline phosphatase activation measured on day 3 by Alamar Blue assay. In kind it is cell-based.
Assay [18] has the same target. The experiment in a line: Positive ago-allosteric modulation of GLP2R overexpressed in human SE302 cells assessed as increase in intracellular cAMP level at 1 to 10 uM after 30 mins in presence of GLP2 (3 to 33). It counts as functional, cell-based.
Assay [19] shares this target. Described as §1. It counts as cell-based.
Assay [20] has the same target. The experiment in a line: Positive ago-allosteric modulation of GLP2R overexpressed in human SE302 cells assessed as increase in intracellular cAMP level at 1 to 10 uM after 30 mins in presence of GLP2 (11 to 33). In kind it is functional, cell-based.
For assay [21] the target is unchanged. The experiment in a line: Positive ago-allosteric modulation of GLP2R overexpressed in human SE302 cells assessed as decrease in GLP2 (11 to 33) EC50 at 10 uM measured on day 3 by Alamar Blue assay relative to control. It counts as cell-based.
Assay [22] shares this target. The experiment in a line: Positive ago-allosteric modulation of GLP2R overexpressed in human SE302 cells assessed as increase in GLP2 (3 to 33)-induced placental alkaline phosphatase activation at 1 uM measured on day 3 by Alamar Blue assay relative to control. In kind it is cell-based.
The target is the same in assay [23]. Kind of assay: Positive ago-allosteric modulation of GLP2R overexpressed in human SE302 cells assessed as increase in intracellular cAMP level at 10 to 100 uM after 30 mins. In kind it is functional, cell-based.
Assay [24] shares this target. Kind of assay: Positive ago-allosteric modulation of GLP2R overexpressed in human SE302 cells assessed as change in GLP2 EC50 measured on day 3 by Alamar Blue assay relative to control. It counts as cell-based.
For assay [25] the target is unchanged. Kind of assay: Positive ago-allosteric modulation of GLP2R overexpressed in human SE302 cells assessed as increase in GLP2 (11 to 33)-induced placental alkaline phosphatase activation at 10 uM measured on day 3 by Alamar Blue assay relative to control. In kind it is cell-based.
Assay [26] has the same target. Kind of assay: Positive ago-allosteric modulation of GLP2R overexpressed in human SE302 cells assessed as decrease in GLP2 (3 to 33) EC50 at 1 uM measured on day 3 by Alamar Blue assay relative to control. In kind it is cell-based.
Assay [27] shares this target. Kind of assay: Positive ago-allosteric modulation of GLP2R overexpressed in human SE302 cells assessed as increase in GLP2-induced placental alkaline phosphatase activation at 10 uM measured on day 3 by Alamar Blue assay relative to control. It counts as cell-based.
For assay [28] the target is unchanged. The experiment in a line: Positive ago-allosteric modulation of GLP2R overexpressed in human SE302 cells assessed as increase in GLP2 (11 to 33)-induced placental alkaline phosphatase activation at 10 uM measured on day 3 by Alamar Blue assay relative to GLP2. In kind it is cell-based.
Assay [29] has the same target. The experiment in a line: Positive ago-allosteric modulation of GLP2R overexpressed in human SE302 cells assessed as upward shift in GLP2-induced placental alkaline phosphatase activation measured on day 3 by Alamar Blue assay. In kind it is cell-based.
The target is the same in assay [30]. The experiment in a line: Positive ago-allosteric modulation of GLP2R overexpressed in human SE302 cells assessed as increase in GLP2 (11 to 33)-induced placental alkaline phosphatase activation at 1 uM measured on day 3 by Alamar Blue assay relative to control. In kind it is cell-based.

pEC50: −log10 of the molar value. Activity calls are given as the source filed them. The rule behind the calls is not given here.

Glucagon-like peptide 1 receptor (Homo sapiens), sequence (P43220 whole entry): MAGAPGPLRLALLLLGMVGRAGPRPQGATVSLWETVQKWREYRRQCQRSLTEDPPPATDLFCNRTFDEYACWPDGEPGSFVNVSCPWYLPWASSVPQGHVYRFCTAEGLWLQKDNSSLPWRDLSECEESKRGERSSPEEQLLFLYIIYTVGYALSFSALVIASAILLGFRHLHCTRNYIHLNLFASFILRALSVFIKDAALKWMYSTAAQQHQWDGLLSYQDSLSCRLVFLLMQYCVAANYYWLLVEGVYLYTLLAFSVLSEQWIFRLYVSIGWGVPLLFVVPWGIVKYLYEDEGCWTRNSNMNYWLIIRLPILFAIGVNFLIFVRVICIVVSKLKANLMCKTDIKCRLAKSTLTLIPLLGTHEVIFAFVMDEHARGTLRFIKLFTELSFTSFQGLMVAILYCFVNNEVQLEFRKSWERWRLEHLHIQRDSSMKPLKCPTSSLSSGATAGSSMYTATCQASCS

Turning to H-NTILDNLAARDFINWLIQTKITD-OH, the %max in [1] was 11%. Besides, the Activity was 100% in [2], “Dose-dependent effect” in assay [4], 88% in assay [5] and “Dose-dependent effect” in [6]. In assay [3], the pEC50 was 5.89.

For the molecule `O/N=C(\CSc1ccncc1)c1cc(Cl)sc1Cl`, the outcome in [7] was inactive. Moreover, the %max in [8] is 55%.

Regarding `O/N=C(\CSc1ccccc1)c1cc(Cl)sc1Cl`, the fold change (FC) in assay [9] turned out to be 3.4; in assay [15], 3.3; in assay [21], 17; in [26], 1.2. The %max turned out to be 701% in assay [10]; 150% in assay [11]; 55% in assay [14]; 110% in assay [22]; 930% in [25]; 490% in [30]. In addition, the outcome in assay [12], in assay [19] and in assay [24] was inactive. For the same molecule, the result in assay [13], in assay [16], in [18], in [20], in assay [23] and in [28] was Active. In addition, the Activity entry in [17] is “Dose-dependent effect”; in [27], 10%; in assay [29], “Dose-dependent effect”.
